Source: patent US12545649B2, “WDR5-MYC inhibitors” (Vanderbilt University, priority 2019, dated 2026)

What follows are compounds tested on MYC (assay: ChIP: disruption of binding of MYC to chromatin). Conditions: HEK293 cells expressing HA-tagged MYC, 20 μM, 10 h.
Format: cell-based
Experimental: (§1) HEK293 cells expressing HA-tagged MYC and GFP were plated in growth media. Upon reaching approximately 70% confluence, cells were washed once with PBS then treated for 10 h with 20 μM compound in OptiMEM media. Cells were cross linked at room temperature in PBS containing 1% Formaldehyde for 10 minutes, then cells were scraped into 1.5 mL PBS supplemented with 125 mM Glycine. Cells were collected by centrifugation, washed once with PBS+125 mM Glycine, and pellets stored frozen. Chromatin was prepared by lysing cells at 80×10^6 per mL in ChIP Lysis Buffer (50 mM Tris pH 8.0, 140 mM NaCl, 1 mM EDTA, 1% Triton, 1% SDS and supplemented with protease inhibitor cocktail), Samples were sonicated (BioRuptor) for 30 minutes and cleared by centrifugation. Precipitation was performed essentially as described [Thomas L R 2015 Mol Cell] by diluting chromatin 1:9 in ChIP buffer without SDS. Decrosslinked DNA was diluted to 500 μL with water and 7.5 μL was used for each qPCR reaction. Percent input was calculated by comparison to a 30-fold dilution of decrosslinked chromatin. Primers used for ChIP have been described in Thomas, L. R.; Adams, C. M.; Wang, J.; Weissmiller, A. M.; Creighton, J.; Lorey, S. L.; Liu, Q.; Fesik, S. W.; Eischen, C. M.; Tansey, W. P. Interaction of the Oncoprotein Transcription Factor MYC with its Chromatin Cofactor WDR5 is Essential for Tumor Maintenance. […]

Row | amount of MYC at ZFPM1 and ZMF771 (MYC binding independent of WDR5) | amount of MYC at loci where MYC recruitment is dependent on WDR5 (C7orf40, RNPS1, RPS14, and RPL5) | Compound
1 | nearly unaffected | reduction | CS(=O)(=O)c1nc(NS(=O)(=O)c2cc(Br)cc(Cl)c2O)cn1C1CCCC1 [Example 26, 5-Bromo-3-chloro-N-(1-cyclopentyl-2-(methylsulfonyl)-1H-imidazol-4-yl)-2-hydroxybenzenesulfonamide]

What follows are compounds tested against T1, WDR5 (Homo sapiens, UniProt P61964) (assay: ChIP for WDR5 binding to chromatin). Conditions: HEK293 cells, 20 μM, 10 h.
Format: cell-based
Experimental: as §1

Row | WDR5 levels at these loci (ChIP for WDR5) versus negative control compound | Compound
2 | comparable levels | CS(=O)(=O)c1nc(NS(=O)(=O)c2cc(Br)cc(Cl)c2O)cn1C1CCCC1 [Example 26, 5-Bromo-3-chloro-N-(1-cyclopentyl-2-(methylsulfonyl)-1H-imidazol-4-yl)-2-hydroxybenzenesulfonamide]

Each compound was assayed against T1, WDR5 (assay: Competition-based fluorescence polarization anisotropy (FPA) assay). Conditions: FITC small molecule probe.
Format: binding
Experimental: (Thomas, […], et al, Molecular Cell 2015 (58): 440-452). Fluorescence polarization measurements were performed in 384-well plates (Greiner Bio One) using a Cytation 3 plate reader (BioTek). […] […] The assay buffer contained 200 mM phosphate, 300 mM NaCl, and 0.5 mM TCEP and 0.1% Chaps at pH 6.0. Compounds were serially diluted in assay buffer at a top concentration sufficient to yield a 9-point dose-response curve.

Row | Ki [µM] | Compound
3 | 0.16 | O=S(=O)(Nc1cn(C2CCCC2)cn1)c1cc(Br)cc(Cl)c1O [Example 1, 5-Bromo-3-chloro-N-(1-cyclopentyl-1H-imidazol-4-yl)-2-hydroxybenzenesulfonamide]
4 | 0.82 | O=S(=O)(Nc1cn(CC2CC2)cn1)c1cc(Br)cc(Cl)c1O [Example 5, 5-Bromo-3-chloro-N-(1-(cyclopropylmethyl)-1H-imidazol-4-yl)-2-hydroxybenzenesulfonamide]
5 | 4.03 | O=S(=O)(Nc1cn(CC2CCCO2)cn1)c1cc(Br)cc(Cl)c1O (centres unmarked) [Example 15, 5-Bromo-3-chloro-2-hydroxy-N-(1-((tetrahydrofuran-2-yl)methyl)-1H-imidazol-4-yl)benzenesulfonamide]
6 | 19.2 | O=S(=O)(Nc1cn(CC2CCCO2)cn1)c1cc(Br)ccc1O (centres unmarked) [Example 16, 5-Bromo-2-hydroxy-N-(1-((tetrahydrofuran-2-yl)methyl)-1H-imidazol-4-yl)benzenesulfonamide]
7 | 0.66 | Cc1nc(NS(=O)(=O)c2cc(Br)cc(Cl)c2O)cn1C1CCC1 [Example 17, 5-Bromo-3-chloro-N-(1-cyclobutyl-2-methyl-1-imidazol-4-yl)-2-hydroxybenzenesulfonamide]
8 | 0.97 | O=S(=O)(Nc1cn(C(C2CC2)C2CC2)cn1)c1cc(Br)cc(Cl)c1O [Example 18, 5-Bromo-3-chloro-N-(1-(dicyclopropylmethyl)-1-imidazol-4-yl)-2-hydroxybenzenesulfonamide]
9 | 10.3 | O=S(=O)(Nc1cn(C2CCNC2)cn1)c1cc(Br)cc(Cl)c1O (centres unmarked) [Example 31, 5-Bromo-3-chloro-2-hydroxy-N-(1-(pyrrolidin-3-yl)-1H-imidazol-4-yl)benzenesulfonamide]
10 | 1.1 | O=S(=O)(Nc1cc(-c2ccccc2)[nH]n1)c1cc(Br)cc(Cl)c1O [Example 35, 5-Bromo-3-chloro-2-hydroxy-N-(5-phenyl-1H-pyrazol-3-yl)benzenesulfonamide]
11 | 0.12 | O=S(=O)(Nc1nc2ccccc2s1)c1cc(Br)cc(Cl)c1O [Example 37, N-(Benzo[d]thiazol-2-yl)-5-bromo-3-chloro-2-hydroxybenzenesulfonamide]
12 | 3.9 | O=S(=O)(Nc1nc2ccc(OC(F)(F)F)cc2s1)c1cc(Br)cc(Cl)c1O [Example 40, 5-Bromo-3-chloro-2-hydroxy-N-(6-(trifluoromethoxy)benzo[d]thiazol-2-yl)benzenesulfonamide]
13 | 0.99 | O=C(c1nc(NS(=O)(=O)c2cc(Br)cc(Cl)c2O)cn1C1CCCC1)N1CCC(C2CCNC2)CC1 (centres unmarked) [Example 54, 5-Bromo-3-chloro-N-(1-cyclopentyl-2-(4-(pyrrolidin-3-yl)piperidine-1-carbonyl)-1H-imidazol-4-yl)-2-hydroxybenzenesulfonamide]
